Reference: ChEMBL document CHEMBL2163330, “Dynamic modeling of human 5-lipoxygenase-inhibitor interactions helps to discover novel inhibitors” (J Med Chem, 2012)

Assays:
[1] = target: T1, Leukotriene A-4 hydrolase (Homo sapiens) (UniProt P09960); assay: Inhibition of epoxide hydrolase activity of human recombinant leukotriene A4 hydrolase expressed in Escherichia coli assessed as LTB4 production at 100 uM by RP-HPLC
T1 sequence (whole entry): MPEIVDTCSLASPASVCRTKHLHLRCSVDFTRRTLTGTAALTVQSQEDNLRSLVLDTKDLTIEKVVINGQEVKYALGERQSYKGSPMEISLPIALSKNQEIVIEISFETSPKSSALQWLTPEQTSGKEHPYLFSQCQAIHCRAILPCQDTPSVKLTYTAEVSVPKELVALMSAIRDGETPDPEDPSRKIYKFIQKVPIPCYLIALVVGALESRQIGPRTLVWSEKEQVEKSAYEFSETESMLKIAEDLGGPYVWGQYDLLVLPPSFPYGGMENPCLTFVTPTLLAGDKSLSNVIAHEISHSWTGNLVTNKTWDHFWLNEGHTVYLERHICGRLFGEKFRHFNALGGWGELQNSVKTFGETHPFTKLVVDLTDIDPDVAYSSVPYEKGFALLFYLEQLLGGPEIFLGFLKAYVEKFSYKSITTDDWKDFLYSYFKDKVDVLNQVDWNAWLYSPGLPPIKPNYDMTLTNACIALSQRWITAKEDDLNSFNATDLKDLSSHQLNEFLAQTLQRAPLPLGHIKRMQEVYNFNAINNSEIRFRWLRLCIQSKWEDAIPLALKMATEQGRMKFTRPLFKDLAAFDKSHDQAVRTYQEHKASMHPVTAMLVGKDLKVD

[2] = target: T2, Polyunsaturated fatty acid 5-lipoxygenase (Homo sapiens, UniProt P09917); assay: Inhibition of human 5-LOX in A23187-induced human whole blood assessed as reduction in LTB4 production pre-incubated for 20 mins before A23187 addition by enzyme immunoassay
T2 sequence (P09917 whole entry): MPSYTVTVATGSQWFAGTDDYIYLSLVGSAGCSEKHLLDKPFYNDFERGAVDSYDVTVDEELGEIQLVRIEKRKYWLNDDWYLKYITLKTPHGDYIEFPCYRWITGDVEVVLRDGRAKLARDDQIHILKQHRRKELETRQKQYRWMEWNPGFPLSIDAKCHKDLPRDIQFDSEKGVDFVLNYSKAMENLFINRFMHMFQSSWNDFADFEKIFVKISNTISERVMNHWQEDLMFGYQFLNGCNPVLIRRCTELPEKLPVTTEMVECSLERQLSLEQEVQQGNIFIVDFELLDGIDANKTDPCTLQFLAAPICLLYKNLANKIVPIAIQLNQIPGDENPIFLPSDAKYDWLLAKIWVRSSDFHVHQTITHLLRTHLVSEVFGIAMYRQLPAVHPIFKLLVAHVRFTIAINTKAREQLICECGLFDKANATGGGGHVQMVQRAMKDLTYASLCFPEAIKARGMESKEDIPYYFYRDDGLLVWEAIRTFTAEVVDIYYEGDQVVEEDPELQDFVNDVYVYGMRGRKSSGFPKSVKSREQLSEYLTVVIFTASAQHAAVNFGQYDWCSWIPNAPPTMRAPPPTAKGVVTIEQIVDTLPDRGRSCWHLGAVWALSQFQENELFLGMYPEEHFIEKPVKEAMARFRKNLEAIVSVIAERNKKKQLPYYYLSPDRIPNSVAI

[3] = target: T2, Polyunsaturated fatty acid 5-lipoxygenase; assay: Inhibition of human recombinant 5-LOX expressed in Escherichia coli […] incubated 10 mins before substrate addition by fluorescence spectrophotometry based cell free system assay
[4] = target: T3, Polyunsaturated fatty acid 5-lipoxygenase (Rattus norvegicus, UniProt P12527); assay: Inhibition of 5-LOX in rat RBL1 cells assessed as reduction in LTB4 production; type: cell-based, RBL-1
T3 sequence (P12527 whole entry): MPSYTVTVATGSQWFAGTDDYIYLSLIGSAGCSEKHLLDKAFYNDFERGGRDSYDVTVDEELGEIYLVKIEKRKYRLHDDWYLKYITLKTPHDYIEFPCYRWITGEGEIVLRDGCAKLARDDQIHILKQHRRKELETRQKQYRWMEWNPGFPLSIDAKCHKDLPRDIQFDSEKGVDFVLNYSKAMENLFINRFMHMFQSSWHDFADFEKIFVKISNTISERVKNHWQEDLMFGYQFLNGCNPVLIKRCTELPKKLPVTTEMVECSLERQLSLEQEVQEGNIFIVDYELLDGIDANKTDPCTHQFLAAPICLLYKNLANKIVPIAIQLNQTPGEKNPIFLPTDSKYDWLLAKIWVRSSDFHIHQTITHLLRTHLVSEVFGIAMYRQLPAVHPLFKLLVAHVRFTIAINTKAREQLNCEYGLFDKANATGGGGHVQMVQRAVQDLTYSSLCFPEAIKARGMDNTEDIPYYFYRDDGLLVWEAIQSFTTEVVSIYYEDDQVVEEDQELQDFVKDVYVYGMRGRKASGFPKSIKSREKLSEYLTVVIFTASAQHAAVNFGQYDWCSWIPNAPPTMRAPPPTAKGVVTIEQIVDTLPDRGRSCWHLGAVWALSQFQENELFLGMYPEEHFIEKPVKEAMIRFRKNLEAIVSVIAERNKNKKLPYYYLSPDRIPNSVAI

Prostaglandin E synthase [5] = target: T4, Prostaglandin E synthase (Homo sapiens, UniProt O14684); assay: Inhibition of mPGES1 in LPS-stimulated human whole blood assessed as reduction in PGE2 production incubated for 24 hrs at 37 degC by enzyme immunoassay
T4 sequence (O14684 whole entry): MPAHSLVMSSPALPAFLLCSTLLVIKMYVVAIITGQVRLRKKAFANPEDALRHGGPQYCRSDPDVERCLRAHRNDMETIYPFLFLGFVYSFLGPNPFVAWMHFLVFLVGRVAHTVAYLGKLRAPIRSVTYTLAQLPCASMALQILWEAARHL

Prostaglandin E synthase [6] = target: T4, Prostaglandin E synthase; assay: Inhibition of mPGES1 expressed in Escherichia coli Rosetta-DE3 assessed as reduction in PGE2 production by enzyme immunoassay based cell-free system assay
[7] = target: T5, Prostaglandin G/H synthase 2 (Homo sapiens) (UniProt P35354); assay: Inhibition of purified COX2 assessed as formation of oxidized TMPD during reduction of PGG2 to PGH2 preincubated for 15 mins by chromogenic assay
T5 sequence (whole entry): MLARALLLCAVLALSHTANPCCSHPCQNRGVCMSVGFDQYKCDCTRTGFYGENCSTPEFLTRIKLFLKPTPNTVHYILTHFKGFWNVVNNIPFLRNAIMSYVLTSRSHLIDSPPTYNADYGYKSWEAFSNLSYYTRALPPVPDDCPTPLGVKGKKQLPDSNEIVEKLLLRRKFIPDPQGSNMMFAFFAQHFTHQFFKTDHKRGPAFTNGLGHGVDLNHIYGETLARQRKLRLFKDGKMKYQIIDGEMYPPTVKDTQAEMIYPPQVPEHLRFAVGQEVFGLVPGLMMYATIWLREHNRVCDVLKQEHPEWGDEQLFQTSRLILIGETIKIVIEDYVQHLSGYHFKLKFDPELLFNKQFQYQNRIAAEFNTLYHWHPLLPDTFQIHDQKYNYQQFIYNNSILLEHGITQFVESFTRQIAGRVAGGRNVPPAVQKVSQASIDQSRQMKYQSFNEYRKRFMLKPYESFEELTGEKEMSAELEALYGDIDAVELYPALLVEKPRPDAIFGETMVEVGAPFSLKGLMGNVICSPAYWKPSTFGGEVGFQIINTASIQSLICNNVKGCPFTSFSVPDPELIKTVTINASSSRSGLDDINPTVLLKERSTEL

[8] = target: Prostaglandin G/H synthase 1 (Homo sapiens) (UniProt P23219); assay: Inhibition of purified COX1 assessed as formation of oxidized TMPD during reduction of PGG2 to PGH2 preincubated for 15 mins by chromogenic assay
Sequence of Prostaglandin G/H synthase 1 (Homo sapiens) (P23219 whole entry): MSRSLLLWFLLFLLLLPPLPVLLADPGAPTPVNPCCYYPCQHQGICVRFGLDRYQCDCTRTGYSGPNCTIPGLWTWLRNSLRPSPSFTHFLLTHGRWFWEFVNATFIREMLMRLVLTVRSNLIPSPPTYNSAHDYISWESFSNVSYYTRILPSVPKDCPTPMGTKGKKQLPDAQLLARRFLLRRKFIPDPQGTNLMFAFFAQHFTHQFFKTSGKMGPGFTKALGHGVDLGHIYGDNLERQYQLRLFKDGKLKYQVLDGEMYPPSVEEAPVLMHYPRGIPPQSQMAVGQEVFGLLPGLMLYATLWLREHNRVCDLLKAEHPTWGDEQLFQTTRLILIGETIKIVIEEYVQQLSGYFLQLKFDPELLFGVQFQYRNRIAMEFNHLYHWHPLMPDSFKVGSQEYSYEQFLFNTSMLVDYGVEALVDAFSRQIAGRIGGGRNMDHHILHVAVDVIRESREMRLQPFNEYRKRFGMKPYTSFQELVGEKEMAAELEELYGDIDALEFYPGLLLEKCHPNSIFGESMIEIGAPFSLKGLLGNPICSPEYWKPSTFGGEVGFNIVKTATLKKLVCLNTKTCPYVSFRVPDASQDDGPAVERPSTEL

| inhibition [1] [%] | IC50 [2] [µM] | IC50 [3] [µM] | IC50 [4] [µM] | IC50 (Prostaglandin E synthase [5]) [µM] | IC50 (Prostaglandin E synthase [6]) [µM] | inhibition [7] [%] | inhibition [8] [%] | Structure (SMILES) |
| --- | --- | --- | --- | --- | --- | --- | --- | --- |
| < 50 | > 100 | 97 | – | – | – | – | – | c1ccc2c(c1)OCC(c1nn3c(Cn4nnc5ccccc54)nnc3s1)O2 (stereo not given) |
| < 50 | 76 | 1.4 | – | – | – | – | – | Cc1ccc(Sc2nc([N+](=O)[O-])nn2CC(=O)c2ccccc2)cc1 |
| < 50 | > 100 | 33.8 | – | – | – | – | – | O=c1/c(=C/c2cc(I)c(O)c([N+](=O)[O-])c2)sc2nc3ccccc3n12 |
| < 50 | > 100 | 70 | – | – | – | – | – | C/C(NCc1ccc(Cl)c(Cl)c1)=C1\C(=O)N(c2nc3ccccc3s2)N=C1C(F)(F)F |
| < 50 | > 100 | 15 | – | – | – | – | – | O=C(CSc1nnnn1-c1ccc(Cl)c(C(=O)O)c1)Nc1ccc(F)cc1 |
| < 50 | > 100 | 44 | – | – | – | – | – | Cc1cc(Cl)ccc1NC(=O)Cn1nnc2sc3c(c2c1=O)CCCC3 |
| < 50 | 38 | 5.3 | – | – | – | – | – | O=C1c2ccc([N+](=O)[O-])cc2C(=O)N1CNc1ccc([N+](=O)[O-])cc1 |
| – | – | – | 3.6 | 3.9 | – | – | – | CC1(C)Cc2c(-c3ccccc3)c(-c3ccc(Cl)cc3)c(CC(=O)O)n2C1 [LICOFELONE] |
| < 50 | > 100 | 80 | – | – | – | – | – | O=C1OC(c2ccc3ccccc3c2)=N/C1=C\c1ccc(Cl)cc1 |
| < 50 | 36 | 0.62 | – | – | – | – | – | O=C(O/N=C/c1ccc(Br)cc1)c1cc([N+](=O)[O-])cc([N+](=O)[O-])c1 |
| < 50 | > 100 | 14.2 | – | – | – | – | – | Cc1cccc(C2=N/C(=C\c3ccc(-c4cccc(Cl)c4)o3)C(=O)O2)c1 |
| < 50 | > 100 | 20 | – | – | – | – | – | COc1ccc(/C=C2\N=C(c3ccc(Cl)c([N+](=O)[O-])c3)OC2=O)c(OC)c1OC |
| < 50 | 40 | 0.86 | – | – | – | – | – | CCOc1cc(/C=N\Nc2nc3ccccc3s2)cc([N+](=O)[O-])c1O |
| < 50 | > 100 | 53 | – | – | – | – | – | N#C/C(=C(/O)c1ccc(Cl)c([N+](=O)[O-])c1)c1nc2ccccc2s1 |
| < 50 | > 100 | 65 | – | – | – | – | – | Cc1nn(Cc2ccc(F)cc2)c(C)c1NC(=O)C1CC(c2cccc(Br)c2)=NO1 (stereo not given) |
| < 50 | 23.9 | 0.8 | – | – | – | – | – | O=[N+]([O-])c1ccc(CSc2cc3ccccc3[nH]2)c([N+](=O)[O-])c1 |

| inhibition [1] [%] | IC50 [2] [µM] | IC50 [3] [µM] | IC50 [4] [µM] | IC50 (Prostaglandin E synthase [5]) [µM] | IC50 (Prostaglandin E synthase [6]) [µM] | inhibition [7] [%] | inhibition [8] [%] | Structure (SMILES) |
| --- | --- | --- | --- | --- | --- | --- | --- | --- |
| < 50 | > 100 | 37.5 | – | – | – | – | – | Clc1ccc(-c2nn3c(Cc4ccccc4)nnc3s2)cc1Cl |
| < 50 | > 100 | 70 | – | – | – | – | – | c1ccc(SCc2nnc3sc(-c4ccc5c(c4)OCCO5)nn23)cc1 |
| < 50 | > 100 | 81 | – | – | – | – | – | CC(C)(C)OC(=O)NNS(=O)(=O)c1cccc([N+](=O)[O-])c1 |
| < 50 | > 100 | 29 | – | – | – | – | – | CCOc1ccc(S(=O)(=O)N(CC(=O)N2CCc3ccccc3C2)c2ccccc2)cc1 |
| < 50 | > 100 | 5.4 | – | – | – | – | – | Cn1ncc(Cl)c1C(=O)N/N=C/c1ccccc1OC(=O)c1ccc([N+](=O)[O-])cc1 |
| – | 9.7 | 1.87 | – | 15.6 | 6.7 | – | – | Cc1cccc(N=C2NS(=O)(=O)c3cc([N+](=O)[O-])ccc32)c1 |
| < 50 | 8.6 | 1.04 | – | 7.6 | 3.6 | < 50 | < 50 | O=C(Oc1cccc2ccccc12)c1cc([N+](=O)[O-])cc([N+](=O)[O-])c1 |
| < 50 | – | – | – | – | – | < 50 | < 50 | Cc1cccc(NC2=NS(=O)(=O)c3cc([N+](=O)[O-])ccc32)c1 |
| < 50 | > 100 | 4.6 | – | – | – | – | – | Cc1ccc2cccc(OC(=O)c3cccc([N+](=O)[O-])c3)c2n1 |
| < 50 | > 100 | 45 | – | – | – | – | – | COC(=O)c1ccc(NC(=S)NC(=O)c2cc(-c3ccccc3)nc3ccccc23)cc1 |
| < 50 | > 100 | 68 | – | – | – | – | – | COc1cc(Cl)cc(/C=C2/SC(=O)N(Cc3ccc(F)cc3)C2=O)c1O |
| < 50 | > 100 | 82 | – | – | – | – | – | O=C(NCCNC(=O)c1ccc([N+](=O)[O-])o1)c1ccc2ccccc2n1 |
| < 50 | > 100 | 17 | – | – | – | – | – | COc1ccc(-c2nnc3sc(/C=C/c4ccccc4OC)nn23)cc1 |
| < 50 | 8.1 | 6.9 | – | – | – | – | – | O=[N+]([O-])c1ccc(Cl)c(S(=O)(=O)n2cnc3ccccc32)c1 |
| < 50 | > 100 | 67 | – | – | – | – | – | O=C(NC1c2ccccc2Oc2ccccc21)c1ccc(Cl)c([N+](=O)[O-])c1 |
| < 50 | 48 | 1.49 | – | – | – | – | – | O=C(COC(=O)c1ccc(C(=O)c2ccc([N+](=O)[O-])cc2)cc1)c1ccccc1 |
